PubChem BioAssay AID504489 (Sanford-Burnham Center for Chemical Genomics, 2011)
Active and inactive are the calls of the source.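 Rule for the calls: active = IC50 at or below 20 µM; inactive = the rest.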

test system: 697 B-cell NF-kB luciferase, PMA/ionomycin, luminescence 16 h; experiment: NF-kB reporter signal decrease in 697 cells – B- and T-cell screen hits, luminescence, SAR follow-up (AID 504489)

| Compound | IC50 |
| --- | --- |
| Cc1ccc(S(=O)(=O)Nc2cccc3ccc(C)nc23)cc1 | 2740 nM |
| Nc1cccc2cccnc12 | > 79000 nM (inactive) |
| COc1cc(NS(=O)(=O)c2ccc(C)cc2)c2ncccc2c1 | 2580 nM |
| COc1cc(N)c2ncccc2c1 | > 79000 nM (inactive) |
| Cc1ccc2cccc(N)c2n1 | > 79000 nM (inactive) |

Other lines, results leading:

| IC50 | Compound |
| --- | --- |
| 1400 nM | O=S(=O)(Nc1cccc2cccnc12)c1ccccc1 |
| 1290 nM | COc1cc(NS(=O)(=O)c2ccccc2)c2ncccc2c1 |
| 2210 nM | Cc1ccc(S(=O)(=O)Nc2cccc3cccnc23)cc1 |
| > 79000 nM (inactive) | Cc1ccc2cccc(NS(=O)(=O)c3ccccc3)c2n1 |
